The results in this text go back to US5656604A, “Peptide compound and its preparation” (Fujisawa Pharmaceutical Co., Ltd., priority 1990, dated 1997).

The test system of the assay is rabbit thoracic aorta contraction induced by endothelin.

Method: Thoracic aorta were isolated from freshly killed male albino rabbits (11 weeks old) and cut into 25 mm strips with the intima denuded. After removing fatty tissues, these arterial segments (2 mm width and 25 mm length) were suspended in 25 ml organ chambers filled with Krebs-Ringer solution (113 mM NaCl, 4.8 mM KCl, 2.2 mM CaCl2, 1.2 mM MgCl2, 25 mM NaHCO3, 1.2 mM KH2 PO4, 5.5 mM glucose) maintained at 37° C. and gassed with 95% O2 /5% CO2.
A preload of 0.5 g was applied after the aorta had been conditioned by application of increasing concentration of KCl. Contractions were measured as an increase in isometric tension.
Test Compound was tested against contractile response of rabbit aorta induced by endothelin (3.2×10^-9 M). […] Test Compound was added after the full contraction response induced by endothelin.

The compound `CC(C)C[C@H](NC(=O)NC1CCCCC1)C(=O)N[C@H](Cc1cn(C)c2ccccc12)C(=O)N[C@H](Cc1ccccn1)C(=O)O` [A] registered a concentration for half-maximal inhibition (IC50) of 230 nM.

By IC50 is commonly meant the midpoint of a concentration-inhibition curve. High values mean weaker potency, low ones greater potency.
